This assay concerns the target T1, PPARγ (Homo sapiens, UniProt P37231).
T1 construct: made in house
T1 sequence (P37231 1-505): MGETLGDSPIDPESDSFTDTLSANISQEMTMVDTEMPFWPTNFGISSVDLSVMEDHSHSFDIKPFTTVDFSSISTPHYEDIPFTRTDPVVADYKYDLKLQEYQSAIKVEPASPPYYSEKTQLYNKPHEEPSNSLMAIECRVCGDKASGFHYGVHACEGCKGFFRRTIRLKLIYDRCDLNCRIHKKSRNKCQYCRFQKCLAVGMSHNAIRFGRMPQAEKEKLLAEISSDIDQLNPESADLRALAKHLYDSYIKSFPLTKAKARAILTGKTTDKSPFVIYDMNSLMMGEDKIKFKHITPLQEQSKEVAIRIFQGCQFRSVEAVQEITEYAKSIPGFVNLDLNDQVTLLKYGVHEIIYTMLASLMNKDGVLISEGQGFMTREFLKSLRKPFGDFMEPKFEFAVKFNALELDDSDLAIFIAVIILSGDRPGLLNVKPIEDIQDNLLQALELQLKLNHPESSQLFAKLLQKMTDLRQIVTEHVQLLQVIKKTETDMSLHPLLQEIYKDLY
Description: PPARγ ligand binding assay utilizing [3H]-BRL 49653 as the radioligand (filtration). The settings on record: concentration required to reduce by 50% the specific binding of [3H]-BRL 49653. The text has this: The compounds of the present invention can be evaluated for modulation of the PPARγ receptor using assays such as those described in Jiang, et al., Nature 391:82-86 (1998), Ricote, et al., Nature 391:79-82 (1998) and Lehmann, et al., J. Biol. Chem. 270(12): 12953-12956 (1995). Alternatively, the compounds can be evaluated for their ability to displace radiolabeled BRL 49653 from a PPARγ-GST fusion protein as follows:
PPARγ-GST fusion protein (prepared according to standard procedures), [^3H]-BRL 49653 having 50 Ci/mmol specific activity, Polyfiltronics Unifilter 350 filtration plate and glutathione-Sepharose® beads (from Pharmacia: washed twice with 10× binding buffer in which BSA and DTI can be left out).
Binding buffer (10 mM Tris-HCl, pH 8.0, 50 mM KCl, 10 mM DTT, 0.02% BSA and 0.0 1% NP-40) is added in 80-μL amounts to the wells of the filtration plate. The test compound is then added in 10 μL of DMSO. The PPARγ-GST fusion protein and radiolabeled BRL compound are premixed in binding buffer containing 10 mM DTT and added in 10-μL amounts to the wells of the plate to provide final concentrations of 1 µg/well of PPARγ-GST fusion protein and 10 nM [^3H]-BRL 49653 compound. The plate is incubated for 15 min. Glutathione-agarose bead is added in 50 μL of binding buffer, and the plate is vigorously shaken for one hour. The plate is washed four times with 200 μL/well of binding buffer (without BSA and DTT). The bottom of the plate is sealed and 200 μL/well of scintillation cocktail is added. The top of the plate is then sealed and the radioactivity is determined.
IC50 values are defined as the concentration of test compounds required to reduce by 50% the specific binding of [^3H]-BRL 49653 and are represented by (+)<30 μM; (++)<10 μM; (+++)<1 μM.

Broadly, the IC50 is the concentration needed to halve the response being measured.

The compound `CCCCCc1nc(NS(=O)(=O)c2ccc(Cl)cc2Cl)ncc1Sc1ccc(S(=O)(=O)N2CCCCC2)cc1` [Compound 47, 2,4-Dichloro-N-{4-pentyl-5-[4-(piperidine-1-sulfonyl) -phenylsulfanyl]-pyrimidin-2-yl}-benzenesulfonamide] came in with an IC50 below 1 µM.
With `CCCCCc1nc(NS(=O)(=O)c2ccc(Cl)cc2)ncc1Sc1ccc(S(=O)(=O)N2CCCCC2)cc1` [Compound 48, 4-Chloro-N-{4-pentyl-5-[4-(piperidine-1-sulfonyl) -phenylsulfanyl]-pyrimidin-2-yl}-benzenesulfonamide] the figure was below 1 µM; with `Cc1nc(NS(=O)(=O)c2ccc(Cl)cc2Cl)ncc1Sc1ccc(S(=O)(=O)N2CCCCC2)cc1` [Compound 49, 2,4-Dichloro-N-{4-methyl-5-[4-(piperidine-1-sulfonyl) -phenylsulfanyl]-pyrimidin-2-yl}-benzenesulfonamide], below 10 µM.
`Cc1nc(NS(=O)(=O)c2ccc(C(F)(F)F)cc2Cl)ncc1Sc1ccc(S(=O)(=O)N2CCCCC2)cc1` [Compound 50, 2-Chloro-N-{4-methyl-5-[4-(piperidine-1-sulfonyl) -phenylsulfanyl]-pyrimidin-2-yl}-4-trifluoromethyl-benzenesulfonamide] came in with an IC50 below 10 µM.
With `Cc1nc(NS(=O)(=O)c2ccc(Cl)cc2)ncc1Sc1ccc(S(=O)(=O)N2CCCCC2)cc1` [Compound 51, 4-Chloro-N-{4-methyl-5-[4-(piperidine-1-sulfonyl) -phenylsulfanyl]-pyrimidin-2-yl}-benzenesulfonamide] the figure was below 10 µM; with `Cc1nc(NS(=O)(=O)c2ccc(Cl)cc2Cl)ncc1Sc1ccc(S(=O)(=O)N2CCOCC2)cc1` [Compound 52, 2,4-Dichloro-N-{4-methyl-5-[4-(morpholine-4-sulfonyl) -phenylsulfanyl]-pyrimidin-2-yl}-benzenesulfonamide], below 10 µM.
With `Cc1nc(NS(=O)(=O)c2ccc(C(F)(F)F)cc2Cl)ncc1Sc1ccc(S(=O)(=O)N2CCOCC2)cc1` [Compound 53, 2-Chloro-N-{4-methyl-5-[4-(morpholine-4-sulfonyl) -phenylsulfanyl]-pyrimidin-2-yl}-4-trifluoromethyl-benzenesulfonamide] the figure was below 10 µM; with `Cc1nc(NS(=O)(=O)c2ccc(Cl)cc2Cl)ncc1Oc1ccc(S(=O)(=O)N2CCOCC2)cc1` [Compound 54, 2,4-Dichloro-N-{4-methyl-5-[4-(morpholine-4-sulfonyl) -phenoxy]-pyrimidin-2-yl}-benzenesulfonamide], below 30 µM; with `Cc1nc(NS(=O)(=O)c2ccc(C(F)(F)F)cc2Cl)ncc1Oc1ccc(S(=O)(=O)N2CCOCC2)cc1` [Compound 55, 2-Chloro-N-{4-methyl-5-[4-(morpholine-4-sulfonyl) -phenoxy]-pyrimidin-2-yl}-4-trifluoromethyl-benzenesulfonamide], below 10 µM.
`Cc1nc(NS(=O)(=O)c2ccc(Cl)cc2)ncc1Oc1ccc(S(=O)(=O)N2CCOCC2)cc1` [Compound 56, 4-Chloro-N-{4-methyl-5-[4-(morpholine-4-sulfonyl) -phenoxy]-pyrimidin-2-yl}-benzenesulfonamide]: the IC50 was below 30 µM.
As for `Cc1nc(NS(=O)(=O)c2ccc(Cl)cc2Cl)ncc1Sc1ccc2ccccc2c1` [Compound 57, 2,4-Dichloro-N-[4-methyl-5-(naphthalen-2-ylsulfanyl)-pyrimidin-2-yl]-benzenesulfonamide], the IC50 was below 10 µM.
Take `Cc1nc(NS(=O)(=O)c2ccc(C(F)(F)F)cc2Cl)ncc1Sc1ccc2ccccc2c1` [Compound 59, 2-Chloro-N-[4-methyl-5-(naphthalen-2-ylsulfanyl)-pyrimidin-2-yl]-4-trifluoromethyl-benzenesulfonamide]: the concentration for half-maximal inhibition (IC50) is below 10 µM.
With `Cc1nc(NS(=O)(=O)c2ccc(Cl)cc2Cl)ncc1Oc1ccc(Cl)c(Cl)c1` [Compound 60, 2,4-Dichloro-N-[5-(3,4-dichloro-phenoxy)-4-methyl-pyrimidin-2-yl]-benzenesulfonamide] the figure was below 10 µM; with `Cc1cc(S(=O)(=O)Nc2ccc(Sc3ccc(S(=O)(=O)N4CCCCC4)cc3)c(C)n2)c(Cl)cc1Cl` [Compound 61, 2,4-Dichloro-5-methyl-N-{6-methyl-5-[4-(piperidine-1-sulfonyl)-phenylsulfanyl]-pyridin-2-yl}-benzenesulfonamide], below 1 µM; with `Cc1cc(S(=O)(=O)Nc2cc(C)c(Sc3ccc(S(=O)(=O)N4CCCCC4)cc3)cn2)c(Cl)cc1Cl` [Compound 62, 2,4-Dichloro-5-methyl-N-{4-methyl-5-[4-(piperidine-1-sulfonyl)-phenylsulfanyl]-pyridin-2-yl}-benzenesulfonamide], below 1 µM.
Next, `Cc1cc(NS(=O)(=O)c2ccc(Cl)cc2Cl)ncc1Sc1ccc(S(=O)(=O)N2CCCCC2)cc1` [Compound 63, 2,4-Dichloro-N-{4-methyl-5-[4-(piperidine-1-sulfonyl) -phenylsulfanyl]-pyridin-2-yl}-benzenesulfonamide]: below 1 µM; `Cc1cc(NS(=O)(=O)c2ccc(C(F)(F)F)cc2Cl)ncc1Sc1ccc(S(=O)(=O)N2CCCCC2)cc1` [Compound 64, 2-Chloro-N-{4-methyl-5-[4-(piperidine-1-sulfonyl) -phenylsulfanyl]-pyridin-2-yl}-4-trifluoromethyl-benzenesulfonamide]: below 1 µM; `Cc1nc(NS(=O)(=O)c2ccc(Cl)cc2Cl)ccc1Sc1ccc(S(=O)(=O)N2CCCCC2)cc1` [Compound 65, 2,4-Dichloro-N-{6-methyl-5-[4-(piperidine-1-sulfonyl) -phenylsulfanyl]-pyridin-2-yl}-benzenesulfonamide]: below 1 µM.
Next, `Cc1nc(NS(=O)(=O)c2ccc(C(F)(F)F)cc2Cl)ccc1Sc1ccc(S(=O)(=O)N2CCCCC2)cc1` [Compound 66, 2-Chloro-N-{6-methyl-5-[4-(piperidine-1-sulfonyl) -phenylsulfanyl]-pyridin-2-yl}-4-trifluoromethyl-benzenesulfonamide]: below 1 µM.
On to `Cc1cc(S(=O)(=O)Nc2ccc(Sc3ccc(S(=O)(=O)N4CCCCC4)cc3)cn2)c(Cl)cc1Cl` [Compound 67, 2,4-Dichloro-5-methyl-N-{5-[4-(piperidine-1-sulfonyl) -phenylsulfanyl]-pyridin-2-yl}-benzenesulfonamide], for which the IC50 is below 1 µM.
`O=S(=O)(Nc1ccc(Sc2ccc(S(=O)(=O)N3CCCCC3)cc2)cn1)c1ccc(Cl)cc1Cl` [Compound 68, 2,4-Dichloro-N-{5-[4-(piperidine-1-sulfonyl)-phenylsulfanyl]-pyridin-2-yl}-benzenesulfonamide] showed an IC50 below 1 µM.
Compound `O=S(=O)(Nc1ccc(Sc2ccc(S(=O)(=O)N3CCCCC3)cc2)cn1)c1ccc(C(F)(F)F)cc1Cl` [Compound 69, 2-Chloro-N-{5-[4-(piperidine-1-sulfonyl)-phenylsulfanyl]-pyridin-2-yl}-4-trifluoromethyl-benzenesulfonamide] yielded an IC50 below 1 µM.
Next, `COC(=O)c1nc(NS(=O)(=O)c2ccc(Cl)cc2Cl)ccc1Sc1ccc(S(=O)(=O)N2CCCCC2)cc1` [Compound 70, 6-(2,4-Dichloro-benzenesulfonylamino)-3-[4-(piperidine-1-sulfonyl)-phenylsulfanyl]-pyridine-2-carboxylic acid methyl ester]: below 1 µM.
With `O=C(O)c1nc(NS(=O)(=O)c2ccc(Cl)cc2Cl)ccc1Sc1ccc(S(=O)(=O)N2CCCCC2)cc1` [Compound 71, 6-(2,4-Dichloro-benzenesulfonylamino)-3-[4-(piperidine-1-sulfonyl)-phenylsulfanyl]-pyridine-2-carboxylic acid] the figure was below 10 µM; with `CON(C)C(=O)c1nc(NS(=O)(=O)c2ccc(Cl)cc2Cl)ccc1Sc1ccc(S(=O)(=O)N2CCCCC2)cc1` [Compound 72, 6-(2,4-Dichloro-benzenesulfonylamino)-3-[4-(piperidine-1-sulfonyl)-phenylsulfanyl]-pyridine-2-carboxylic acid methoxy-methyl-amide], below 1 µM.

(Values after US7893077B2, “Bisaryl-sulfonamides” (Amgen Inc., priority 2004, dated 2011).)
